According to ChEMBL document CHEMBL1649524, “Resistance selection studies comparing the activity of razupenem (PTZ601) to vancomycin and linezolid against eight methicillin-resistant and two methicillin-susceptible Staphylococcus aureus strains” (2009):
Converted amounts (≈) assume the structure as drawn.

Legend:
Format in all cases: functional
Staphylococcus aureus [1] = experiment: Antimicrobial activity against methicillin-susceptible Staphylococcus aureus 543 measured on day 40 by macrodilution method
Staphylococcus aureus [2] = experiment: Antimicrobial activity against methicillin-susceptible Staphylococcus aureus 540 measured on day 25 by macrodilution method; settings: Staphylococcus aureus, 540, 600 h
Staphylococcus aureus [3] = experiment: Antimicrobial activity against heterogeneous vancomycin-intermediate Staphylococcus aureus 168 measured on day 15 by macrodilution method; settings: Staphylococcus aureus, 168, 360 h
Staphylococcus aureus [4] = experiment: Antimicrobial activity against vancomycin-resistant Staphylococcus aureus 509 measured on day 10 by macrodilution method; settings: Staphylococcus aureus, 509, 240 h
Staphylococcus aureus [5] = experiment: Antimicrobial activity against vancomycin-resistant Staphylococcus aureus 509 by macrodilution method
Staphylococcus aureus [6] = experiment: Antimicrobial activity against methicillin-resistant Staphylococcus aureus 547 measured on day 20 by macrodilution method; settings: Staphylococcus aureus, 547, 480 h
Staphylococcus aureus [7] = experiment: Antimicrobial activity against heterogeneous vancomycin-intermediate Staphylococcus aureus 873 by macrodilution method
Staphylococcus aureus [8] = experiment: Antimicrobial activity against vancomycin-resistant Staphylococcus aureus 510 measured on day 45 by macrodilution method
Staphylococcus aureus [9] = experiment: Antimicrobial activity against methicillin-susceptible Staphylococcus aureus 543 measured after 10 antibiotic-free subculturing by macrodilution method
Staphylococcus aureus [10] = experiment: Antimicrobial activity against vancomycin-intermediate Staphylococcus aureus 555 measured on day 50 by macrodilution method
Staphylococcus aureus [11] = experiment: Antimicrobial activity against methicillin-susceptible Staphylococcus aureus 543 measured on day 5 by macrodilution method; settings: Staphylococcus aureus, 543, 120 h
Staphylococcus aureus [12] = experiment: Antimicrobial activity against vancomycin-resistant Staphylococcus aureus 510 by macrodilution method
Staphylococcus aureus [13] = experiment: Antimicrobial activity against heterogeneous vancomycin-intermediate Staphylococcus aureus 873 after 30 passages by macrodilution method
Staphylococcus aureus [14] = experiment: Antimicrobial activity against heterogeneous vancomycin-intermediate Staphylococcus aureus 873 measured on day 45 by macrodilution method
Staphylococcus aureus [15] = experiment: Antimicrobial activity against methicillin-resistant Staphylococcus aureus 547 measured on day 10 by macrodilution method; settings: Staphylococcus aureus, 547, 240 h
Staphylococcus aureus [16] = experiment: Antimicrobial activity against heterogeneous vancomycin-intermediate Staphylococcus aureus 168 measured on day 25 by macrodilution method; settings: Staphylococcus aureus, 168, 600 h
Staphylococcus aureus [17] = experiment: Antimicrobial activity against vancomycin-intermediate Staphylococcus aureus 1287 measured on day 35 by macrodilution method
Staphylococcus aureus [18] = experiment: Antimicrobial activity against vancomycin-resistant Staphylococcus aureus 509 measured on day 30 by macrodilution method
Staphylococcus aureus [19] = experiment: Antimicrobial activity against methicillin-resistant Staphylococcus aureus 525 measured on day 50 by macrodilution method
Staphylococcus aureus [20] = experiment: Antimicrobial activity against vancomycin-intermediate Staphylococcus aureus 555 measured on day 10 by macrodilution method; settings: Staphylococcus aureus, 555, 240 h
Staphylococcus aureus [21] = experiment: Antimicrobial activity against vancomycin-resistant Staphylococcus aureus 509 measured on day 50 by macrodilution method
Staphylococcus aureus [22] = experiment: Antimicrobial activity against heterogeneous vancomycin-intermediate Staphylococcus aureus 873 measured on day 50 by macrodilution method
Staphylococcus aureus [23] = experiment: Antimicrobial activity against methicillin-resistant Staphylococcus aureus 525 measured on day 40 by macrodilution method
Staphylococcus aureus [24] = experiment: Antimicrobial activity against heterogeneous vancomycin-intermediate Staphylococcus aureus 873 measured on day 20 by macrodilution method; settings: Staphylococcus aureus, 873, 480 h
Staphylococcus aureus [25] = experiment: Antimicrobial activity against methicillin-resistant Staphylococcus aureus 525 measured on day 20 by macrodilution method; settings: Staphylococcus aureus, 525, 480 h
Staphylococcus aureus [26] = experiment: Antimicrobial activity against methicillin-susceptible Staphylococcus aureus 540 measured on day 40 by macrodilution method

## C[C@H]1C=C(c2csc(SC3=C(C(=O)O)N4C(=O)[C@H]([C@@H](C)O)[C@H]4[C@H]3C)n2)CN1 [RAZUPENEM]
Staphylococcus aureus [1]
  MIC: 0.06 µg/mL (≈ 0.147 µM)
Staphylococcus aureus [2]
  MIC: 0.03 µg/mL (≈ 0.0736 µM)
Staphylococcus aureus [3]
  MIC: 8 µg/mL (≈ 19.6 µM)
Staphylococcus aureus [4]
  MIC: 2 µg/mL (≈ 4.91 µM)
Staphylococcus aureus [5]
  MIC: 2 µg/mL (≈ 4.91 µM)
Staphylococcus aureus [6]
  MIC: 4 µg/mL (≈ 9.82 µM)
Staphylococcus aureus [7]
  MIC: 2 µg/mL (≈ 4.91 µM)
Staphylococcus aureus [8]
  MIC: 8 µg/mL (≈ 19.6 µM)
Staphylococcus aureus [9]
  MIC: 0.016 µg/mL (≈ 0.0393 µM)
Staphylococcus aureus [10]
  MIC: 16 µg/mL (≈ 39.3 µM)
Staphylococcus aureus [11]
  MIC: 0.03 µg/mL (≈ 0.0736 µM)
Staphylococcus aureus [12]
  MIC: 1 µg/mL (≈ 2.45 µM)
Staphylococcus aureus [13]
  MIC: 16 µg/mL (≈ 39.3 µM)
Staphylococcus aureus [14]
  MIC: 16 µg/mL (≈ 39.3 µM)
Staphylococcus aureus [15]
  MIC: 1 µg/mL (≈ 2.45 µM)
Staphylococcus aureus [16]
  MIC: 8 µg/mL (≈ 19.6 µM)
Staphylococcus aureus [17]
  MIC: 2 µg/mL (≈ 4.91 µM)
Staphylococcus aureus [18]
  MIC: 4 µg/mL (≈ 9.82 µM)
Staphylococcus aureus [19]
  MIC: 32 µg/mL (≈ 78.5 µM)
Staphylococcus aureus [20]
  MIC: 1 µg/mL (≈ 2.45 µM)
Staphylococcus aureus [21]
  MIC: 4 µg/mL (≈ 9.82 µM)
Staphylococcus aureus [22]
  MIC: 16 µg/mL (≈ 39.3 µM)
Staphylococcus aureus [23]
  MIC: 16 µg/mL (≈ 39.3 µM)
Staphylococcus aureus [24]
  MIC: 4 µg/mL (≈ 9.82 µM)
Staphylococcus aureus [25]
  MIC: 4 µg/mL (≈ 9.82 µM)
Staphylococcus aureus [26]
  MIC: 0.06 µg/mL (≈ 0.147 µM)
